Results as given in US20100099677A1, “Compounds, Compositions and Methods Comprising Thiazole Derivatives” (Institute for OneWorld Health, priority 2008, published 2010).

Each compound was assayed against T1, CFTR (Homo sapiens, UniProt P13569) (assay: T84 assay (FLIPR membrane potential dye, forskolin/IBMX-stimulated CFTR channel activity)). Conditions: human colonic T84 cells, average of at least 2 runs unless otherwise indicated.
T1 construct: results in the phosphorylation and opening of CFTR anion channels; host or cells: Human colonic T84 cells
Type: cell-based
Method: (§1) For example, Human colonic T84 cells can be acquired from the European Collection of Cell Cultures (ECACC) and grown in standard culture conditions as described by the supplier. On the day before assay 25,000 T84 cells per well are plated into standard black walled, clear bottom 384-well assay plates in standard growth medium consisting of DMEM:F12 with 10% FBS and incubated overnight. On the day of the assay the plates are washed using a standard assay buffer (HBSS with 10 mM Hepes) and incubated for 15 minutes in serum free cell culture medium before the addition of a commercially available membrane potential sensitive fluorescent dye (FLIPR Red membrane potential dye, Molecular Devices Corporation). T84 cells are incubated with the FLIPR Red membrane potential dye for 45 minutes in the presence and absence of test compound before being transferred to a commercially available fluorescence imaging plate reader (FLIPR384, Molecular Devices Corporation). Fluorescence levels are monitored continuously every second for 150 seconds; after an initial 10 second baseline, CFTR channel activity is stimulated through the addition of 10 μM forskolin in the presence of 100 μM of the phosphodiesterase inhibitor iso-butyl-methylxanthine (IBMX). Addition of the forskolin leads to the activation of intracellular adenylyl cylase 1, elevating cAMP levels and results in the phosphorylation and opening of CFTR anion channels. CFTR channel opening causes chloride ion efflux and subsequent depolarization of the cells, which is measured by an increase in fluorescence. CFTR inhibitor compounds prevent cell depolarization and the associated increase in fluorescence.
as §1, with “Human colonic” for “For example, Human colonic”, “T84 cells are acquired from” for “T84 cells can be acquired from”, “(ECACC) and are grown in” for “(ECACC) and grown in”

T1 sequence (P13569 whole entry): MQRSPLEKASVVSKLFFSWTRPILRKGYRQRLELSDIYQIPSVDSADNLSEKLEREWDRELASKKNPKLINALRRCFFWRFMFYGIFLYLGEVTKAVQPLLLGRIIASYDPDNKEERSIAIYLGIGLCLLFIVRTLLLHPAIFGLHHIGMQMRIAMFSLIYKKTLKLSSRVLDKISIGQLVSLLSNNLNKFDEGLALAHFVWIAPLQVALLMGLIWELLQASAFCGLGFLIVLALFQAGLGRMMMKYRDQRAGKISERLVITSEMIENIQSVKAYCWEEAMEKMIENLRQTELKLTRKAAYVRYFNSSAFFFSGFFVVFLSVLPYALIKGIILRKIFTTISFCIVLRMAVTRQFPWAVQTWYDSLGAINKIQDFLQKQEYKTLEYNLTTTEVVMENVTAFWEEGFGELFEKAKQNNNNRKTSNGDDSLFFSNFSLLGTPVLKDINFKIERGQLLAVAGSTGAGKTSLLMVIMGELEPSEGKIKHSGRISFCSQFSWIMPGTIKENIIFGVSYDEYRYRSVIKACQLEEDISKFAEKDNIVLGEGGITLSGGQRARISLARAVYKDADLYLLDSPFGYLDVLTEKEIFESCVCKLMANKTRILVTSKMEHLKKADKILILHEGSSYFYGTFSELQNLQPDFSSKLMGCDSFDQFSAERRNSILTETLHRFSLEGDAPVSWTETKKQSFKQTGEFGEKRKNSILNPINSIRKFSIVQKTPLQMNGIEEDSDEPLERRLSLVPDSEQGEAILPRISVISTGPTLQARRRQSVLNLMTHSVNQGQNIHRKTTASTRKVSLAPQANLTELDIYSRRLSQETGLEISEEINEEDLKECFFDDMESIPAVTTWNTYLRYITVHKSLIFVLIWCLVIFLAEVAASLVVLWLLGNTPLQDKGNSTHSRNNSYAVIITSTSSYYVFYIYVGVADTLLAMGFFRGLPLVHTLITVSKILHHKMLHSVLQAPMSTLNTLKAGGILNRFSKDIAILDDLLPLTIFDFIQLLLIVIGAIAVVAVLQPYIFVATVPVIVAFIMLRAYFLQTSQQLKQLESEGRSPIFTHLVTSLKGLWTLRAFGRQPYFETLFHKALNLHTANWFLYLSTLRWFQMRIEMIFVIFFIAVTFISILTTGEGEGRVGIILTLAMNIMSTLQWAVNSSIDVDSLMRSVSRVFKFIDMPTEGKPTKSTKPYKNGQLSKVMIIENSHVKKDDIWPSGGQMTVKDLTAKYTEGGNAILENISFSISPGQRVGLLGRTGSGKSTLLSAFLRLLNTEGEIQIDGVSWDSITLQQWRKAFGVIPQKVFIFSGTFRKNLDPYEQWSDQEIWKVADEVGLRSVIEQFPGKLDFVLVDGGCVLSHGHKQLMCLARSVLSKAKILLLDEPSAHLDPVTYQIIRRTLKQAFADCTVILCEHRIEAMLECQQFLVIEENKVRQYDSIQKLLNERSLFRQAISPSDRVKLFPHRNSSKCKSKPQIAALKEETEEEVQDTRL

SMILES | IC50
O=C(NC(c1ccccc1)c1ccccc1)c1nc(-c2cc(Cl)c(O)c(Cl)c2)cs1 [Compound 69, N-Benzhydryl-4-(3,5-dichloro-4-hydroxyphenyl)thiazole-2-carboxamide] | 6.51 µM
O=C(c1nc(-c2cc(Br)c(O)c(Br)c2O)cs1)N1CCN(c2cccc(C(F)(F)F)c2)CC1 [Compound 82, (4-(3,5-dibromo-2,4-dihydroxyphenyl)thiazol-2-yl)(4-(3-(trifluoromethyl)phenyl)piperazin-1-yl)methanone] | 12.6 µM
Cc1cccc(COc2c(-c3csc(C(=O)N4CCC(Cc5ccccc5)CC4)n3)cc(Br)c(O)c2Br)n1 [Compound 88, (4-benzylpiperidin-1-yl)(4-(3,5-dibromo-4-hydroxy-2-((6-methylpyridin-2-yl)methoxy)phenyl)thiazol-2-yl)methanone] | 15.5 µM
CCOC(=O)CCCOc1c(-c2csc(C(=O)N3CCC(Cc4ccccc4)CC3)n2)cc(Br)c(O)c1Br [Compound 83, Ethyl 4-(6-(2-(4-benzylpiperidine-1-carbonyl)thiazol-4-yl)-2,4-dibromo-3-hydroxyphenoxy)butanoate] | 4.2 µM
O=C(NCC(c1ccccc1)c1ccccc1)c1nc(-c2cc(Br)c(O)c(Br)c2O)cs1 [Compound 81, 4-(3,5-dibromo-2,4-dihydroxyphenyl)-N-(2,2-diphenylethyl)thiazole-2-carboxamide] | 4.22 µM
O=C(NCc1ccc(Oc2ccccc2)cc1)c1nc(-c2cc(Cl)c(O)c(Cl)c2)cs1 [Compound 76, 4-(3,5-Dichloro-4-hydroxyphenyl)-N-(4-phenoxybenzyl)thiazole-2-carboxamide] | 29.5 µM
O=C(c1nc(-c2cc(Br)c(O)c(Br)c2)cs1)N1CCN(c2cccc(C(F)(F)F)c2)CC1 [Compound 73, (4-(3,5-Dibromo-4-hydroxyphenyl)thiazol-2-yl)(4-(3-(trifluoromethyl)phenyl)piperazin-1-yl)methanone] | 12.3 µM
CN(Cc1cccc(C(F)(F)F)c1)C(=O)c1nc(-c2cc(Cl)c(O)c(Cl)c2)cs1 [Compound 67, 4-(3,5-Dichloro-4-hydroxyphenyl)-N-methyl-N-(3-(trifluoromethyl)benzyl)thiazole-2-carboxamide] | 4.04 µM
O=C(NCc1cccc(OC(F)(F)F)c1)c1nc(-c2cc(Br)c(O)c(Br)c2O)cs1 [Compound 78, 4-(3,5-dibromo-2,4-dihydroxyphenyl)-N-(3-(trifluoromethoxy)benzyl)thiazole-2-carboxamide] | 2.56 µM
O=C(c1nc(-c2cc(Cl)c(O)c(Cl)c2)cs1)N1CCN(c2cccc(C(F)(F)F)c2)CC1 [Compound 74, (4-(3,5-Dichloro-4-hydroxyphenyl)thiazol-2-yl)(4-(3-(trifluoromethyl)phenyl)piperazin-1-yl)methanone] | 20 µM
O=C(NCc1cccc(OC(F)(F)F)c1)c1csc(-c2cc(Cl)c(O)c(Cl)c2)n1 [Compound 80, 2-(3,5-Dichloro-4-hydroxyphenyl)-N-(3-(trifluoromethoxy)benzyl)thiazole-4-carboxamide] | 15 µM
O=C(O)CCCOc1c(-c2csc(C(=O)N3CCC(Cc4ccccc4)CC3)n2)cc(Br)c(O)c1Br [Compound 89, 4-(6-(2-(4-Benzylpiperidine-1-carbonyl)thiazol-4-yl)-2,4-dibromo-3-hydroxyphenoxy)butanoic acid] | 8.79 µM
O=C(NC(c1ccccc1)c1ccccc1)c1nc(-c2cc(Br)c(O)c(Br)c2)cs1 [Compound 71, N-Benzhydryl-4-(3,5-dibromo-4-hydroxyphenyl)thiazole-2-carboxamide] | 9.24 µM
O=C(NCc1ccc(Oc2ccccc2)cc1)c1nc(-c2cc(Br)c(O)c(Br)c2O)cs1 [Compound 79, 4-(3,5-dibromo-2,4-dihydroxyphenyl)-N-(4-phenoxybenzyl)thiazole-2-carboxamide] | 11.5 µM
O=C(c1nc(-c2cc(Cl)c(O)c(Cl)c2)cs1)N1CCC(Cc2ccccc2)CC1 [Compound 70, (4-benzylpiperidin-1-yl)(4-(3,5-dichloro-4-hydroxyphenyl)thiazol-2-yl)methanone] | 8.95 µM
O=C(NCc1ccc(Oc2ccccc2)cc1)c1nc(-c2cc(Br)c(O)c(Br)c2)cs1 [Compound 75, 4-(3,5-Dibromo-4-hydroxyphenyl)-N-(4-phenoxybenzyl)thiazole-2-carboxamide] | 23.9 µM
COCCOCCOc1c(-c2csc(C(=O)N3CCC(Cc4ccccc4)CC3)n2)cc(Br)c(O)c1Br [Compound 87, (4-benzylpiperidin-1-yl)(4-(3,5-dibromo-4-hydroxy-2-(2-(2-methoxyethoxy)ethoxy)phenyl)thiazol-2-yl)methanone] | 1.73 µM
O=C(c1nc(-c2cc(Br)c(O)c(Br)c2O)cs1)N1CCC(Cc2ccccc2)CC1 [Compound 68, (4-Benzylpiperidin-1-yl)(4-(3,5-dibromo-2,4-dihydroxyphenyl)thiazol-2-yl)methanone] | 4.78 µM
O=C(c1nc(-c2cc(Br)c(O)c(Br)c2OCCN2CCOCC2)cs1)N1CCC(Cc2ccccc2)CC1 [Compound 86, (4-benzylpiperidin-1-yl)(4-(3,5-dibromo-4-hydroxy-2-(2-morpholinoethoxy)phenyl)thiazol-2-yl)methanone] | 3.03 µM
O=C(c1nc(-c2cc(Br)c(O)c(Br)c2)cs1)N1CCC(Cc2ccccc2)CC1 [Compound 72, (4-Benzylpiperidin-1-yl)[4-(3,5-dibromo-4-hydroxyphenyl)thiazol-2-yl]methanone] | 11.1 µM
